Results published in publication PMC4936777 (ACS chemical neuroscience, 2015).
Converted amounts (≈) assume the structure as drawn.

Legend:
[1] = biological target: α1β2γ2L GABAA receptor (Homo sapiens, UniProt P14867+P18507+P47870); experiment: Two electrode voltage clamp of GABAA receptors expressed in X. laevis oocytes; assay type: cell-based; conditions: for modulation of GABA EC10 current: coexposure with GABA EC10, −80 mV; for direct activation of the receptor in the absence of GABA: fropofol at 5 and 50 μM
[2] = in vivo; conditions: C57/B6, mouse, iv
[3] = test system: albino Xenopus laevis tadpoles; assay type: in vivo
[4] = biological target: human serum albumin (hSA) domain III (Homo sapiens, UniProt P02768); experiment: in vitro
[5] = physchem; assay type: physicochemical; conditions: water, thermodynamic from solid
[6] = biological target: T1, horse spleen apoferritin (HSAF) (Equus caballus, UniProt P02791); experiment: 1-aminoanthracene; assay type: binding
T1 sequence (P02791 2-175 limits assumed): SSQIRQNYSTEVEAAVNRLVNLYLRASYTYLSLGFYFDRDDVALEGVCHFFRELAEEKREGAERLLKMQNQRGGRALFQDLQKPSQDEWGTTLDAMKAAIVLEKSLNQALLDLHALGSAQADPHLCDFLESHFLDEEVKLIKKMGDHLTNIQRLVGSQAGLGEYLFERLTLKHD

[7] = biological target: T1, horse spleen apoferritin (HSAF); experiment: Isothermal titration calorimetry with HSAF; assay type: binding
[8] = test system: isolated, intact rat trabecular muscle; experiment: Force development of isolated intact trabecular muscle; conditions: 100 μM
[9] = biological target: T2, human serum albumin (hSA) (Homo sapiens, UniProt P02768); conditions: single site binding model
[10] = biological target: T1, horse spleen apoferritin (HSAF); experiment: [3H]AziPm photolabel competition with HSAF; assay type: binding; conditions: One μM ligand
[11] = test system: C57/Bl6 mice; experiment: Pharmacological activity and EEG in mice after IV bolus; assay type: in vivo, mouse
[12] = biological target: T2, human serum albumin (hSA); experiment: biochemical

Which Hill coefficient ([1]; GABA concentration–response, mean ± SEM) does the source give for `NCCCC(=O)O` [GABA, γ-Aminobutyric acid, reference compound] here?
Its Hill coefficient is 0.87 ± 0.04.

What does the source list for `CC(C)c1cccc(C(C)C)c1F` [fropofol, 2-fluoro-1,3-diisopropylbenzene]?
concentration at 45 s ([2]; 96 mg/kg): 38000 ng/g; concentration at 10 min ([2]; 200 mg/kg): 51000 ng/g; loss-of-mobility endpoints in tadpoles ([3]; 3–100 μM, 60 and 90 min exposure): none of the X. laevis tadpoles within any dose group exhibited the standard loss-of-mobility endpoints; time to resume normal swimming behaviors after exchange for fresh pond water ([3]; albino, Xenopus laevis, in vivo): 10 to 15 min; inhibition at 75 µM [4]: 37 ± 12%; solubility at 24 h [5]: 116 ± 4.4 µM (≈ 20.9 µg/mL); Kd [6]: 0.7 µM; Kd [7]: 1.7 µM; fold increase in affinity for HSAF relative to propofol (ITC) ([7]; relative to propofol): 4- to 5 fold; depression (reduction) of maximum force development ([8]; LBN/F1, rat): 35 ± 1%; effect on propofol positive modulation of the GABAA receptor ([1]; 50 μM fropofol, with GABA EC10 and propofol): no significant change; modulation of GABA EC10 current [1]: no significant modulation or inhibition; direct activation of the receptor in the absence of GABA [1]: no significant direct activation; effect on 5 μM propofol potentiation of GABAA receptor currents ([1]; saturating concentrations of fropofol, with GABA EC10): no significant alteration; stoichiometry n for hSA (ITC) [9]: 1.3 ± 0.9; reduction in [3H]AziPm binding to HSAF [10]: 61%; observable effects in mice ([11]; 96 mg/kg, bolus tail vein injection, 10% lipid emulsion): no observable effects; toxicity in mice in the following days postinjection ([11]; 180 mg/kg IV): no toxicity was observed; time to resume normal activity in mice ([11]; C57/B6, mouse, in vivo): 2 to 3 h; EEG recording in mice ([11]; mouse, in vivo): Phenotypical seizure activity; EEG recordings and physical observation in mice ([11]; mouse, in vivo): generalized tonic-clonic seizure-like activity; loss of righting reflex in mice ([11]; up to the highest dose): not with even the highest dose; Kd [12]: 91 µM

For `CC(C)c1cccc(C(C)C)c1O` [propofol, 2,6-diisopropylphenol, reference compound], which Kd [6] is on record?
Its Kd is 10 µM.

What about the “depression (reduction) of maximum force development” value ([8]; room temperature) of the same compound?
The value was 49 ± 4%.

What about the “modulation of GABA EC10 current” value [1] of the same compound?
Its value is “concentration-dependent increase in current up to 80 μM”.

What about the “direct activation of the receptor in the absence of GABA” value [1] of the same compound?
The value was “minor direct activation”.

And the “reduction in [3H]AziPm binding to HSAF” value [10]?
The value was 31%.

And the “loss of righting reflex in mice” value ([11]; 20 mg/kg)?
The value was “produced”.
